{"source": "patent US11286231B2", "about": "“Hydrogen-bonding compounds, compositions comprising the same, and methods of preparing and using the same” (Wake Forest University Health Sciences, priority 2016, dated 2022)", "key": {"[1]": {"test": "Preliminary rheometer tensile stretch (stickiness) test of catechol amine hydrogel", "type": "physicochemical", "source_text": "(§1) These increases were not observed in control groups. This gives validation to the activity of the newly added catechol components of the system. […] Following this observation we employed the rheometer using a customized protocol to apply a tensile stretch to hydrogels that had immobilized between the base and testing geometry of the rheometry. The geometry was brought into contact with the sample and lowered until 0.4 N normal force was reached by the load cell. At this point, the sample was allowed to equilibrate for 30 seconds, after which the rheometer applied constant displacement vertically at 5 um/s, raising the geometry 1000 um, during which time resistive force (“stickiness”) was measured by the load cell every second."}, "[2]": {"test": "Preliminary rheology, shear elastic modulus G′ of modular HA hydrogel with catechol amine", "type": "physicochemical", "details": "catechol amine bound to thiolated HA/gelatin hydrogel via thiol-alkyne, FIG. 1", "source_text": "as §1\nMechanical bulk properties. Hydrogels will be formed in custom molded 12 mm dishes and assessed by rheology to determine bulk material shear elastic modulus. […]"}}}
{"smiles": "C#CCNCc1ccc(O)c(O)c1", "note": "[Compound C1.1]", "values": [{"measurement": "increase in tensile resistance", "setting": "[1]; catechol amine containing hydrogel, 5 um/s, 1000 um, FIG. 2, preliminary", "result": 3, "unit": "fold"}, {"measurement": "stickiness of hydrogel constructs during mechanical shear testing", "setting": "[1]; qualitative", "result": "significantly more “stickiness”"}, {"measurement": "G′ values of the hydrogel constructs (change)", "setting": "[2]", "result": "further increased the G′ values"}]}
